Experimental data published in patent US6448058B1, “Methods for solid phase synthesis of mercapto compounds and derivatives, combinatorial libraries thereof and compositions obtained thereby” (Versicor, Inc., priority 1997, dated 2002).

Biological target: T1, peptide deformylase (Escherichia coli, UniProt P0A6K3)
T1 construct: made in house
Test: Peptide deformylase assay (continuous / discontinuous, f-ML-pNA substrate coupled with Aeromonas aminopeptidase)
Format: biochemical
Settings: tested as a 1:1 mixture of diastereomers; read-out: IC50 against peptide deformylase
Description: The dipeptide substrate, N-formyl-methionylleucyl-p-nitroanilide (f-ML-pNA) is first deformylated by the peptide deformylase to give the corresponding dipeptide with a free amino terminus, which is a substrate for an aminopeptidase from Aeromonas proteolytica (Sigma Chemical Company). Sequential action by the aminopeptidase releases p-nitroaniline, a chromophore which can be detected spectrophotometrically. Peptide deformylase enzyme is prepared as described in Rajagopalan et al., Biochemistry (1997) 36:13910-13918. The dipeptide substrate is prepared as described in Wei and Pei (1997) Anal. Biochem. 250:29-34. Assays are carried out at 23° C. Assays are performed in polystyrene cuvettes which contain 50 mM potassium phosphate, pH 7.0, 100 μM ethylene glycol bis(b-aminoethyl ether)-N,N′-tetraacetic acid (EGTA), 0 to 200 μM peptide substrate, and 0.8 unit Aeromonas aminopeptidase. […] Reactions are monitored continuously at 405 nm in a Perkin-Elmer λ3 UV/VIS spectrophotometer, and the initial rates are calculated from the early part of the reaction progression curves (<60 s). […]
Discontinuous reactions are carried out in a buffer containing 50 mM potassium phosphate, pH 7.0, 100 μM EGTA, and 0 to 200 μM peptide substrate (total volume 250 or 500 μl). […] The amount of p-nitroaniline released is determined by measuring its absorbance at 405 nm. […]

T1 sequence (P0A6K3 whole entry): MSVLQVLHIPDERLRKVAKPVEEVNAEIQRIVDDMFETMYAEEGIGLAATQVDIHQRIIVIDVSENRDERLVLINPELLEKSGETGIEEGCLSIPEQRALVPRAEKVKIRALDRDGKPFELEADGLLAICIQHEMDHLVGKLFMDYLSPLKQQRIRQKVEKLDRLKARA

SMILES	IC50 [µM]
CCCCC(CS)C(=O)N[C@H](C(=O)N1CCC[C@H]1CO)C(C)C (mixture of isomers) [Compound 111]	< 10
CCCCC(CS)C(=O)N[C@@H](CC(C)C)C(=O)Nc1ccc([N+](=O)[O-])cc1 (mixture of isomers) [Compound 110]	< 10
